Patent US20250277029A1, “CANNABINOID TYPE 1 RECEPTOR BINDING PROTEINS AND USES THEREOF” (AMGEN INC., priority 2022, published 2025)

Test system: JAX WT DIO
Experiment: Rimonabant 3 mg/kg QD in JAX WT DIO mice (12 weeks HFD): body weight, fat mass, liver weight
Format: in vivo, mouse
Conditions: JAX WT DIO (12 weeks HFD), 3 mg/kg (6.5 μmol/kg, QD)

Cc1c(C(=O)NN2CCCCC2)nn(-c2ccc(Cl)cc2Cl)c1-c1ccc(Cl)cc1 [Rimonabant, rimonabant]
Fat Mass % Change (Day 15): −23%
Liver Weight % Change (Day) (Day 17): −7%
BW % Change (day 17): −12.9%
